Measurements: patent US11873298B2, “Compounds and uses thereof” (JANSSEN PHARMACEUTICA NV, priority 2017, dated 2024)
Values joined by “and” are separate entries in the source; they are usually repeats but may differ in a detail not shown here. Equal values may be shown once.

Columns and labels:
Type in all cases: cell-based
Ole1 = biological target: T1, Ole1 (Saccharomyces cerevisiae, UniProt P21147); assay: Growth inhibition of yeast strain expressing Ole1 as sole desaturase; settings: yeast strain expressing Ole1 as sole desaturase
T1 construct: expressed in transfected cells; host or cells: S. cerevisiae ole1Δ strain (W303 pdr1Δ pdr3Δ background), plasmid pRS316 with TDH3 promoter and CYC1 terminator
T1 sequence (P21147 1-510): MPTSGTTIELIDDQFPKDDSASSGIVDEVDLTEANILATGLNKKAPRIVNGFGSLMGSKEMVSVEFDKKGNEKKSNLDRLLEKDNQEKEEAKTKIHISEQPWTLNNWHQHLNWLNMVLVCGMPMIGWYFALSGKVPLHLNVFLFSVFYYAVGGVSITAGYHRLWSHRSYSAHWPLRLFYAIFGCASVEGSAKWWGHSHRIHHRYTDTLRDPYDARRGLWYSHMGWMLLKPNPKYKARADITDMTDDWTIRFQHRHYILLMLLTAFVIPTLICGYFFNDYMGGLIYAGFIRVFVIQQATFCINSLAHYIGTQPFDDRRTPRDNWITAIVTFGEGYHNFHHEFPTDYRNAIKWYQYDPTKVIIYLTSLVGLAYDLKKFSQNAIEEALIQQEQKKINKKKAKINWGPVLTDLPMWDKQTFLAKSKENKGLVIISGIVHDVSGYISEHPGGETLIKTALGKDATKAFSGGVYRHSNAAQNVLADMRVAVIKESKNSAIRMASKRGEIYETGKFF
Outline: (§1)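 OD600 growth read-out. ole1Δ yeast, pdr1Δ pdr3Δ, with Ole1/SCD1/SCD5 on a plasmid; SX-Ura media throughout; 2× cell density 0.02 in CSM-Galactose; DMSO compound dilutions; humidified 30° C.; Ole1 stopped at 24 h, SCD1/SCD5 at 40 h.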

SCD1 = biological target: T2, SCD1 (Homo sapiens, UniProt O00767); assay: Growth inhibition of humanized yeast strain expressing SCD1 as sole desaturase; settings: humanized yeast strain expressing SCD1
T2 construct: host or cells: S. cerevisiae ole1Δ strain (W303 pdr1Δ pdr3Δ background), plasmid pRS316 with TDH3 promoter and CYC1 terminator
T2 sequence (O00767 1-359): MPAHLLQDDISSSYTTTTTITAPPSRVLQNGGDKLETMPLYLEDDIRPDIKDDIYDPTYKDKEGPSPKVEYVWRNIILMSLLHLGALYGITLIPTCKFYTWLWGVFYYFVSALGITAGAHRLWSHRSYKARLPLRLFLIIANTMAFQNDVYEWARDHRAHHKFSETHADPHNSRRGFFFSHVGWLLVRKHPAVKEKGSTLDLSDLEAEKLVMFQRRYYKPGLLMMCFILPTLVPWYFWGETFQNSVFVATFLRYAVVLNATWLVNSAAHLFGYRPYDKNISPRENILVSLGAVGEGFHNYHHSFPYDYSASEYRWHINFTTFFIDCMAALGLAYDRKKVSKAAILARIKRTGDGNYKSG
Outline: as §1

SCD5 = biological target: T3, SCD5 (Homo sapiens, UniProt Q86SK9); assay: Growth inhibition of humanized yeast strain expressing SCD5 as sole desaturase; settings: humanized yeast strain expressing SCD5
T3 construct: host or cells: S. cerevisiae ole1Δ strain (W303 pdr1Δ pdr3Δ background), plasmid pRS316 with TDH3 promoter and CYC1 terminator
T3 sequence (Q86SK9 1-330): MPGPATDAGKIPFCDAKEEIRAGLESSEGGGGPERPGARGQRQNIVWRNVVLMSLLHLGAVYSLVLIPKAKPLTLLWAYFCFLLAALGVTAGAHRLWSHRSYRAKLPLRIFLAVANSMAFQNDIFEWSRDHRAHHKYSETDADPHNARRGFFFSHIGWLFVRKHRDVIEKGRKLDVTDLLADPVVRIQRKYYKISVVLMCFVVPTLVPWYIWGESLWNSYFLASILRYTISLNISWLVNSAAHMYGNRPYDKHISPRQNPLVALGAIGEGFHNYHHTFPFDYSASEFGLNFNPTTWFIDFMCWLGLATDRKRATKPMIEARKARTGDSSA
Outline: as §1

SMILES | IC50 (Ole1) [µM] | OLE1 % Max Inhibition (Ole1) | SCD1 % Max Inhibition (SCD1) | IC50 (SCD5) [µM] | SCD5 % Max Inhibition (SCD5) [%] | IC50 (SCD1) [µM]
CCN1C(=O)CN(C)c2cc(-c3noc(C4CCN(C(=O)CNC(=O)c5ccccc5)CC4)n3)ccc21 [Compound 310] | > 45 | 7.1% | 71.2% | > 45 | 66.6 | 
Cc1nn(C)c2cc(-c3noc(C4CCN(C(=O)N5CCOCC5)CC4)n3)ccc12 [Compound 311] | > 45 | 90.8% | 72.9% | > 45 | 60.5 | 
O=C([C@H]1CC(=O)N(c2ccccc2)C1)N1CCC(c2nc(N3CC4(COC4)C3)no2)CC1 [Compound 316] | ≥ 45 | 89.26% | 69.01% |  | 80 | ≥ 45
Cc1nn(C)c2cc(-c3noc(C4CCN(C(=O)CNC(=O)c5ccc(C(F)(F)F)cc5)CC4)n3)ccc12 [Compound 317] | > 45 | 8.3% | 30.0% | > 45 | 20.6 | 
Cc1c2cc(-c3noc(C4CCN(C(=O)c5ccc(C(C)C)cc5)CC4)n3)ccc2nn1C [Compound 318] | > 45 | 89.1% | 77.6% | > 45 | 33.7 | > 45
Cc1nn(C)c2cc(-c3nc(C4CCN(C(=O)OC(C)(C)C)CC4)no3)ccc12 [Compound 319] | > 45 | 74.25% and 63.83% and 86.3% and 84.75% | 97.10% and 89.16% and 81.7% and 75.42% | > 45 |  | ≥ 45
CCn1nc2cc(-c3noc(C4CCN(C(=O)CNC(=O)c5ccccc5)CC4)n3)ccc2c1C [Compound 320] | > 45 | 28.5% | 74.7% | > 45 | 76.0 | 
CCc1c2ccc(-c3noc(C4CCN(C(=O)CNC(=O)c5ccccc5)CC4)n3)cc2nn1C [Compound 321] | > 45 | 14.0% | 71.6% | > 45 | 74.1 | 
Cc1nn(C)c2cc(-c3noc(C4CCN(C(=O)CNC(=O)c5cccc(C#N)c5)CC4)n3)ccc12 [Compound 322] | > 45 | 9.0% | 73.6% | > 45 | 29.8 | 
O=C(C1CC(=O)N(c2cccc(Cl)c2)C1)N1CCC(c2nc(N3CCOCC3)no2)CC1 (centres unmarked) [Compound 323] | > 45 | 89.1% | 76.1% | > 45 | 73.5 | > 45
C[C@H]1CN(c2noc(C3CCN(C(=O)C4CC(=O)N(c5cccc(Cl)c5)C4)CC3)n2)C[C@H](C)O1 (some centres unmarked) [Compound 324] | > 45 | 90.5% | 74.9% | > 45 | 68.7 | > 45
O=C(C1CC(=O)N(c2cccc(Cl)c2)C1)N1CCC(c2nc(N3CCC4(CC3)COC4)no2)CC1 (centres unmarked) [Compound 325] | > 45 | 79.2% | 73.7% | > 45 | 67.2 | > 45
Cc1nn(C)c2cc(-c3nc(C4CCN(C(=O)CNC(=O)c5ccccc5)CC4)no3)ccc12 [Compound 326] | > 45 | 7.5% | 77.1% | > 45 | 26.5 | 
Cc1nn(C)c2cc(-c3noc(N4CCN(C(=O)N5CCCCC5)CC4)n3)ccc12 [Compound 327] | > 45 | 74.8% | 66.5% | > 45 | 68.0 | 
Cc1nn(C)c2cc(-c3noc(C4CCN(C(=O)CNC(=O)c5cc(Cl)ccc5C(F)(F)F)CC4)n3)ccc12 [Compound 328] | > 45 | 21.9% | 86.6% | > 45 | 80.5 | 
Cc1nn(C)c2cc(-c3noc(C4CCN(C(=O)N[C@@H]5C[C@@H]5c5ccccc5)CC4)n3)ccc12 [Compound 329] | > 45 | 12.5% | 16.2% | > 45 | 13.4 | 
Cc1nn(C)c2cc(-c3nc(C4CCN(C(=O)C5CC(=O)N(c6cccc(C#N)c6)C5)CC4)no3)ccc12 (centres unmarked) [Compound 331] | > 45 | 13.7% | 41.9% | > 45 | 24.9 | > 45
N#Cc1cccc(N2CC(C(=O)N3CCC(c4nc(N5CC6(COC6)C5)no4)CC3)CC2=O)c1 (centres unmarked) [Compound 332] | > 45 | 77.0% | 59.7% | > 45 | 31.5 | > 45
Cc1ccc(N2CC(C(=O)N3CCC(c4nc(N5CC6(COC6)C5)no4)CC3)CC2=O)nc1 (centres unmarked) [Compound 333] | > 45 | 81.2% | 55.6% | > 45 | 62.3 | > 45
O=C(c1ccccc1)N1CCC(c2nc(N3CC4(COC4)C3)no2)CC1 [Compound 334] | > 45 | 84.4% | 49.3% | > 45 | 66.7 | 
O=C(c1ccccc1)N1CCC(c2nc(N3CC4(CCCO4)C3)no2)CC1 [Compound 335] | > 45 | 81.5% | 54.0% | > 45 | 61.2 | 
CC(C)c1ccc(C(=O)N2CCC(c3nc(N4CC5(CCCO5)C4)no3)CC2)cc1 [Compound 336] | > 45 | 86.7% | 56.9% | > 45 | 74.1 | 
CC(C)c1ccc(C(=O)N2CCC(c3nc(N4CC5(COC5)C4)no3)CC2)cc1 [Compound 337] | > 45 | 86.4% | 49.6% | > 45 | 61.6 | 
CC(C)n1cc(-c2noc(C3CCN(C(=O)C4CC(=O)N(c5cccc(Cl)c5)C4)CC3)n2)cn1 (centres unmarked) [Compound 338] | > 45 | 85.2% | 60.0% | > 45 | 76.3 | > 45
O=C(C1CC(=O)N(c2cccc(Cl)c2)C1)N1CCC(c2nc(N3CC4(COC4)C3)no2)CC1 (centres unmarked) [Compound 339] | > 45 | 85.7% | 56.1% | > 45 | 75.4 | > 45
O=C(C1CC(=O)N(c2cccc(Cl)c2)C1)N1CCC(c2nc(-c3cnn(C4COC4)c3)no2)CC1 (centres unmarked) [Compound 340] | > 45 | 88.9% | 55.0% | > 45 | 65.9 | > 45
Cc1nn(C)c2cc(-c3nc([C@@H]4C[C@H]5CC[C@@H](C4)N5C(=O)OC(C)(C)C)no3)ccc12 [Compound 341] | > 45 | 91.7% | 45.2% | > 45 | 45.6 | > 45
